Assay [1] addresses T1, c-MET kinase (Seq. ID no. 2) (Homo sapiens, UniProt P08581).
T1 construct: purchased Invitrogen PV3143
Nature of the assay: c-MET Kinase Assay (ADP production, pyruvate kinase/lactate dehydrogenase coupled). In kind it is biochemical. Particulars: read-out: cMET Enzyme Assay.

In assay [2] the target is T2, c-KIT kinase (Seq. ID no. 1) (Homo sapiens, UniProt P10721).
T2 construct: purchased ProQinase
Nature of the assay: c-KIT kinase Assay (ADP production, pyruvate kinase/lactate dehydrogenase coupled). In kind it is biochemical. Particulars: read-out: cKIT Enzyme Assay.

For assay [3], the target named is KDR kinase (Seq ID No. 3) (Homo sapiens, UniProt P35968, DEL940-989/E990V). Put plainly: KDR Kinase Assay (assays K1, K2, K3). In kind it is biochemical. Particulars: assay variant K1, K2 or K3 not stated; read-out: KDR Enzyme Assay.
Sequence of KDR kinase (Seq ID No. 3) (P35968 with tags, fused parts or gaps DEL940-989/E990V): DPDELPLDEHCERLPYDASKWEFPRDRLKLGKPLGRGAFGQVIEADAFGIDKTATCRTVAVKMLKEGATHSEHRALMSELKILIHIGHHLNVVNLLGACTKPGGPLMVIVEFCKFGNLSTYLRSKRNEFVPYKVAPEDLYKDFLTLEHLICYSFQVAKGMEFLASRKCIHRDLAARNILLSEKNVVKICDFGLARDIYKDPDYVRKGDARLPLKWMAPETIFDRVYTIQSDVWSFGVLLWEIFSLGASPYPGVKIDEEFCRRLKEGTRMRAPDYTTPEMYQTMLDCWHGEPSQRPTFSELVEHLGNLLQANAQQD
The next assay has as its target T3, PDGFRα kinase (Homo sapiens, UniProt P16234).
T3 construct: purchased Invitrogen
Put plainly: PDGFRα Kinase Assay. In kind it is biochemical. The settings on record: read-out: PDGFRa Enzyme Assay.

In another assay the target is T4, PDGFRβ (Homo sapiens, UniProt P09619).
T4 construct: purchased Invitrogen
T4 sequence (P09619 33-1106): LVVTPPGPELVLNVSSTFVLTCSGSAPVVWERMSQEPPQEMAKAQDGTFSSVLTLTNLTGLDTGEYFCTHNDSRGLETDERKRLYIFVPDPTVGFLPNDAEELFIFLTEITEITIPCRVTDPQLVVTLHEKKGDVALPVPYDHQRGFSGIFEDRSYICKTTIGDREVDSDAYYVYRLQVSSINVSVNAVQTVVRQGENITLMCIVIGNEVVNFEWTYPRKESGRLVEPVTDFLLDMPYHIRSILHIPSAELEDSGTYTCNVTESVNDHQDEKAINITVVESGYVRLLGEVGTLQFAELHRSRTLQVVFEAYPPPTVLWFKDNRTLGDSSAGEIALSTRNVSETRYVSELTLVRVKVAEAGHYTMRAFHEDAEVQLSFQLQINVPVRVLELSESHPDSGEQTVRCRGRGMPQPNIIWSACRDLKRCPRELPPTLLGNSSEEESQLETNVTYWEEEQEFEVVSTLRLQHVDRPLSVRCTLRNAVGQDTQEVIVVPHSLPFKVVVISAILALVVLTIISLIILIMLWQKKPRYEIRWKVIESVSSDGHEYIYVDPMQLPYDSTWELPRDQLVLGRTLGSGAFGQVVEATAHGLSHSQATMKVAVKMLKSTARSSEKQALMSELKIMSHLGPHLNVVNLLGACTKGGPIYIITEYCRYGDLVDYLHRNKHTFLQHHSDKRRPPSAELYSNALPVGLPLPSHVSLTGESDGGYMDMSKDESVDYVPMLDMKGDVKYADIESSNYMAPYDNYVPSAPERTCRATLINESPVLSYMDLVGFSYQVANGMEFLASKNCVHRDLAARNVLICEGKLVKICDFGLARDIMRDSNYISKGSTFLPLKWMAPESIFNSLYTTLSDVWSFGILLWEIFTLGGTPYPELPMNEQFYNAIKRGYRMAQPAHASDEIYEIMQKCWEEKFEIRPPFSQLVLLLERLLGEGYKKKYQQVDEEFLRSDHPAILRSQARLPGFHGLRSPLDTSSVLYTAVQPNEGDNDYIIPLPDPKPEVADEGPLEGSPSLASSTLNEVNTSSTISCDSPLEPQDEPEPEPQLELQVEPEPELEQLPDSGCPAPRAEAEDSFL
Nature of the assay: PDGFRβ Kinase Assay. In kind it is biochemical. Particulars: read-out: PDGFRb Enzyme Assay.

In a further assay the test system is EBC-1 cells. Put plainly: EBC-1 Cell Proliferation Assay (resazurin). In kind it is cell-based. The settings on record: Homo sapiens, 67 h + 5 h resazurin, read-out: EBC1 Cell Proliferation. As to the method: EBC-1 cells (catalog #JCRB0820) were obtained from the Japan Health Science Research Resources Bank, Osaka, Japan. Briefly, cells were grown in DMEM supplemented with 10% characterized fetal bovine serum (Invitrogen, Carlsbad, Calif.) at 37 degrees Celsius, 5% CO2, 95% humidity. Cells were allowed to expand until reaching 70-95% confluency at which point they were subcultured or harvested for assay use.
EBC-1 Cell Proliferation Assay
A serial dilution of test compound was dispensed into a 96-well black clear bottom plate (Corning, Corning, N.Y.). For each cell line, five thousand cells were added per well in 200 μL complete growth medium. Plates were incubated for 67 hours at 37 degrees Celsius, 5% CO2, 95% humidity. […] Data was analyzed using Prism software (Graphpad, San Diego, Calif.) to calculate IC50 values.
For orientation: Alamar Blue is a resazurin reagent that responds to reducing activity.

In another assay the target is T5, Mo-7e pKIT (Homo sapiens, UniProt P10721).
T5 construct: endogenous in cells; host or cells: Mo-7e
T5 sequence (P10721 26-976): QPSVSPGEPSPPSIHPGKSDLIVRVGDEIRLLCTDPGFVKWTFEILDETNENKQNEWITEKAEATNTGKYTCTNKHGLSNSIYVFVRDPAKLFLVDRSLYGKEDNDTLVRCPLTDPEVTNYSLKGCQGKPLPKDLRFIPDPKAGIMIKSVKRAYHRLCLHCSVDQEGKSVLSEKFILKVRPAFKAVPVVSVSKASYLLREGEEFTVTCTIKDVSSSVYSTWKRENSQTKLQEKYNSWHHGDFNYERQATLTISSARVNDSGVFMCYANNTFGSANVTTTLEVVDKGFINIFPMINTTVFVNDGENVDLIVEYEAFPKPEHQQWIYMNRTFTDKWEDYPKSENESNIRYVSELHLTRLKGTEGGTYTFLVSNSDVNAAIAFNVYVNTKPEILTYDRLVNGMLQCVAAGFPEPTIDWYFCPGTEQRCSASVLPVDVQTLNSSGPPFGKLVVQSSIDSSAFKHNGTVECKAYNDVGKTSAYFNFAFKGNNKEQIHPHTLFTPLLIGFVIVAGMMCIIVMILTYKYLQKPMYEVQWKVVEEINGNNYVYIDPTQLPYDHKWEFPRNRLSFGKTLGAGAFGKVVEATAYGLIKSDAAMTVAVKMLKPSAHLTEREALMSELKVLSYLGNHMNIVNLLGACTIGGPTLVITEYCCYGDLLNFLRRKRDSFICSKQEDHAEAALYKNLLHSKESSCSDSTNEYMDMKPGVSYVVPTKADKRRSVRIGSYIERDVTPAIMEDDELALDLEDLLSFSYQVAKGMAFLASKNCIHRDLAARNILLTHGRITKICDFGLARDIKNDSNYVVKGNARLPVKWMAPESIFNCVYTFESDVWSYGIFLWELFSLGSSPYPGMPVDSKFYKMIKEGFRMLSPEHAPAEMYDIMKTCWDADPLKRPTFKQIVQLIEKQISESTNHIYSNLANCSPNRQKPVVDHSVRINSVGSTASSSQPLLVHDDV
Nature of the assay: Mo-7e pKIT cellular assay. The settings on record: Mo-7e cells. In kind it is cell-based.

For the next assay, the target named is T6, FMS kinase (Homo sapiens, UniProt P07333).
T6 construct: purchased Invitrogen or Millipore
Put plainly: FMS Kinase Assay. In kind it is biochemical. Particulars: read-out: FMS Enzyme Assay.

A further assay relates to M-NFS-60 cells. Put plainly: M-NFS-60 Cell Proliferation Assay (resazurin). In kind it is cell-based. The settings on record: 67 h + 5 h resazurin. The method, then:
Cells were allowed to expand until reaching saturation at which point they were subcultured or harvested for assay use.
M-NFS-60 Cell Proliferation Assay
A serial dilution of test compound was dispensed into a 384-well black clear bottom plate (Corning, Corning, N.Y.). Two thousand five hundred cells were added per well in 50 μL complete growth medium. Plates were incubated for 67 hours at 37 degrees Celsius, 5% CO2, and 95% humidity. […] Data was analyzed using Prism software (Graphpad, San Diego, Calif.) to calculate IC50 values.

T3 sequence (P16234 24-1089): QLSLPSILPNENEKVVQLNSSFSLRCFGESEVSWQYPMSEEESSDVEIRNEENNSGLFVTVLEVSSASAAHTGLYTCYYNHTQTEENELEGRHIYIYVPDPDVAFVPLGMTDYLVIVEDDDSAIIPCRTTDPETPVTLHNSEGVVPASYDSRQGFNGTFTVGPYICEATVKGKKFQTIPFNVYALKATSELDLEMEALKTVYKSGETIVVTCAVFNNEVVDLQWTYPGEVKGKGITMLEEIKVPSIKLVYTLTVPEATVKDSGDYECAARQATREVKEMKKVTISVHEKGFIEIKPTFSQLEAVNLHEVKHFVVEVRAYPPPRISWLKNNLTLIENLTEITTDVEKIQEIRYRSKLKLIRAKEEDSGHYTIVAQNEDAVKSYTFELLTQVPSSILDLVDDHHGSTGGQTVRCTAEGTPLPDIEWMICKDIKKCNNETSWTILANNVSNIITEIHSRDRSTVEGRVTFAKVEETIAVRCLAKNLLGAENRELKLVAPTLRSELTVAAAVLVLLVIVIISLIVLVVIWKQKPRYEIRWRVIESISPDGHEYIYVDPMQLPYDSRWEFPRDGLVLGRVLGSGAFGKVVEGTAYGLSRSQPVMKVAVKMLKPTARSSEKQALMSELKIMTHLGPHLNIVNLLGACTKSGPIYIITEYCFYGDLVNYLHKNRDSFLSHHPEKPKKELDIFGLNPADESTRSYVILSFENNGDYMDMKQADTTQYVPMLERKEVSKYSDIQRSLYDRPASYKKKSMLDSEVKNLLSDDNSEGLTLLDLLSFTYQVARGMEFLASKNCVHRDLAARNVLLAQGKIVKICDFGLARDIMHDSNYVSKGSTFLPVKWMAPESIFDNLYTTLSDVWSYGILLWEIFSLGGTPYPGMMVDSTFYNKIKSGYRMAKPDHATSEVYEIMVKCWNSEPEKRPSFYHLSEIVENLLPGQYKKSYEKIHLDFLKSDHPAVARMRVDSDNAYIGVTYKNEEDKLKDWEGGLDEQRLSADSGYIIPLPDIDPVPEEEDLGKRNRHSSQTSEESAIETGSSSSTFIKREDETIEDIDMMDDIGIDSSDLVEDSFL
T1 sequence (P08581 with tags, fused parts or gaps): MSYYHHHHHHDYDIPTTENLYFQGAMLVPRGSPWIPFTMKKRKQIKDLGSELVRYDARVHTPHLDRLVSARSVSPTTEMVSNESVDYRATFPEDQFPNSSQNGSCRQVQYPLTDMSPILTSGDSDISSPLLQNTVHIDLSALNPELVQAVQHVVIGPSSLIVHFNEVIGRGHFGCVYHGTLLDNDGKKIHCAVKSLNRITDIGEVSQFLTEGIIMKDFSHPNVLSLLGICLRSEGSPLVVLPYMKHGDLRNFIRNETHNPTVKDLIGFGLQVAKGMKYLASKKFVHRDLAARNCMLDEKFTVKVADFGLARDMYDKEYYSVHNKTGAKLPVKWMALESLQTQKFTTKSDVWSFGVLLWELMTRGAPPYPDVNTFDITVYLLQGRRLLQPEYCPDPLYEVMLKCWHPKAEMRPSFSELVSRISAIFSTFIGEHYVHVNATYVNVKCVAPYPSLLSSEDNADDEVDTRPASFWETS
T2 sequence (P10721 with tags, fused parts or gaps): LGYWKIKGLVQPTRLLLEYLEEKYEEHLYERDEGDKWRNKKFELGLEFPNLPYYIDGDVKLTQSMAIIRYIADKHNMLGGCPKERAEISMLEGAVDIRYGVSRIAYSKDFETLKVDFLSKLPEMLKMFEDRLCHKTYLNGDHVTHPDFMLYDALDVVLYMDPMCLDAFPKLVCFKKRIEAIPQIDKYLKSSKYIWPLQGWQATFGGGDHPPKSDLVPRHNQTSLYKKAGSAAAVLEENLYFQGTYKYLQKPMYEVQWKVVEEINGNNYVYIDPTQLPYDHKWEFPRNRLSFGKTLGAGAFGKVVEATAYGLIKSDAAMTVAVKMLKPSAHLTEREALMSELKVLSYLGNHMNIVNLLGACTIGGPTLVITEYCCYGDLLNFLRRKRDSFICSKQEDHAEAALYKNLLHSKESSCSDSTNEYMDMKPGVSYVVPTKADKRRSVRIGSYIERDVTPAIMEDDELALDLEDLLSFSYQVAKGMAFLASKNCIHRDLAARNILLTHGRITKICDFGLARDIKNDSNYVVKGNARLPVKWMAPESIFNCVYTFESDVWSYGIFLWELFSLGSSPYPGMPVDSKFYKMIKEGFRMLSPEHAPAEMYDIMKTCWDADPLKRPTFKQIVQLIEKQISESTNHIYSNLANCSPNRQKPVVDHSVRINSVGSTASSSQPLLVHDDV

In the case of `Cn1cc(-c2cc(Oc3cc(F)c(NC(=O)NC(=O)Cc4ccc(F)cc4)cc3F)ccn2)cn1` [Example 42, 1-(2,5-difluoro-4-(2-(1-methyl-1H-pyrazol-4-yl)pyridin-4-yloxy)phenyl)-3-(2-(4-fluorophenyl)acetyl)urea], the IC50 in [1] was below 0.2 µM; in assay [2] it was below 0.2 µM; in assay [3], below 10 µM; on PDGFRα kinase, below 0.2 µM; at PDGFRβ, below 10 µM; with EBC-1 cells, below 0.2 µM. For the same compound, the IC50 at Mo-7e pKIT is below 2 µM.

For `Cn1cc(-c2cc(Oc3cc(F)c(NC(=O)C4(C(=O)Nc5ccccc5)CC4)cc3F)ccn2)cn1` [Example 45, N-(2,5-difluoro-4-(2-(1-methyl-1H-pyrazol-4-yl)pyridin-4-yloxy)phenyl)-N′-phenylcyclopropane-1,1-dicarboxamide], the IC50 in assay [1] is below 0.2 µM; in assay [2], below 0.2 µM; in [3] it was below 2 µM; on PDGFRα kinase, below 10 µM; at PDGFRβ it was below 10 µM; in the assay on EBC-1 cells it was below 0.2 µM. The compound further came in with an IC50 against Mo-7e pKIT below 0.2 µM.

On to `Cn1cc(-c2cc(Oc3ccc(NC(=O)C4(C(=O)Nc5ccc(F)cc5)CC4)nc3)ccn2)cn1` [Example 41, N-(4-fluorophenyl)-N′-(5-(2-(1-methyl-1,4-pyrazol-4-yl)pyridin-4-yloxy)pyridin-2-yl)cyclopropane-1,1-dicarboxamide], for which the IC50 in assay [1] is below 2 µM; in assay [2], below 2 µM; in [3] it was below 2 µM; on FMS kinase, below 0.2 µM; on PDGFRα kinase, below 2 µM; at PDGFRβ, below 10 µM. The IC50 in the assay on M-NFS-60 cells is below 10 µM.

These data come from US8486951B2 (Deciphera Pharmaceuticals, LLC, priority 2008, dated 2013).
